# Earlier results in patent US20160374909A9, “Treating Cariogenic diseased oral biofilm with elevated pH” (Dental Alliance Holdings, LLC dba Oral Bio Tech, priority 2006, published 2016).
# Key:
# [1] = test system: Lactobacilli; conditions: rinse or varnish
# [2] = test system: Mutans streptococci; conditions: rinse or varnish
structure (smiles),measurement,setting,value
[H]/N=C(\N/C(=N/[H])NCCCCCCNC(=N)NC(=N)Nc1ccc(Cl)cc1)Nc1ccc(Cl)cc1 [chlorhexidine],effect against Lactobacilli,[1],no effect
same,effect against Mutans streptococci,[2],effective
